Assay results published in US10765648B2, “iNKT cell modulators and methods of using the same” (LUDWIG INSTITUTE FOR CANCER RESEARCH, priority 2011, dated 2020).

How the values were obtained:
[1] = system: EG7 cells (EL4 cells transfected with full length ovalbumin); experiment: EG7 tumor regression in mice immunized with OVA plus lipid; type: in vivo; conditions: 800 μg OVA plus lipid four days after 1×10^6 EG7 cells
Procedure: Mice were injected with 1×10^6 EG7 cells (EL4 cells transfected with full length ovalbumin).

[2] = system: human dendritic cells; experiment: Lysis of monocyte-derived dendritic cells cultured with human iNKT cells and lipid, PI staining; type: cell-based; conditions: 40 hours; for dendritic cell killing: various concentrations
Procedure: Monocyte-derived dendritic cells and human iNKT cells were cultured with various concentrations of each lipid for 40 hours and then PI stained to determine percent dendritic cell lysis (and percent survival).

[3] = system: iNKT cells; experiment: In vivo anergy of iNKT cells after lipid preconditioning; parameters: species or system mice; conditions: for iNKT cell anergy (IFNγ 18 h after OVA and alphaGalCer at day zero): preconditioned with 100 ng lipid at day −28
Procedure: The following experiment was designed to assess the in vivo anergy of iNKT cells as defined by their ability to enhance antigen-specific T- and B-cell responses. Mice were pre-conditioned at day −28 with individual lipids shown in FIG. 12 (100 ng i.v. of either alphaGalCer, IMM47, IMM60, or IMM70). Eighteen hours later, mice were bled to assess iNKT cell activation, as defined by IFN-gamma (determined by ELISA(eBioscience)), results shown in FIG. 13. At day zero (28 days after lipid preconditioning), expression of the iNKT cell activation marker PD1 was measured in splenic iNKT cells (FIG. 14).
Eighteen hours later, iNKT cell activation was analyzed by IFNγ expression by ELISA (FIG. 15). At day 7, T cell responses were analyzed (FIG. 16).

[4] = molecular target: T1, iNKT cell TCR (Homo sapiens, UniProt P15813); conditions: cited from earlier work
T1 sequence (P15813 20-301 limits assumed): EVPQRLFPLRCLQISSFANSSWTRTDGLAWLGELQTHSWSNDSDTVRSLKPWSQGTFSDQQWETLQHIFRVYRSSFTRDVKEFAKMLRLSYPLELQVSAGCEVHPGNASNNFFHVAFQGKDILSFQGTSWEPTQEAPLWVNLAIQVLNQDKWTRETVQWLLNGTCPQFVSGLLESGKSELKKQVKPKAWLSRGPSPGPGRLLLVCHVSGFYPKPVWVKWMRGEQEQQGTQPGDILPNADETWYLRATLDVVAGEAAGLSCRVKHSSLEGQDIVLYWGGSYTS

[5] = molecular target: T2, human iNKT cell TCRs for hCD1d loaded with lipid (Homo sapiens, UniProt P15813); experiment: SPR of soluble human iNKT TCR binding to hCD1d-lipid complexes
T2 construct: made in house
T2 sequence (P15813 20-301 limits assumed): T1 sequence (P15813 20-301 limits assumed)
Description: The binding kinetics of these ThrCer and α-GalCer analogue compounds were examined. To this end, bacterially-expressed hCD1d and β-2-microglobulin (β 2 M) molecules were refolded with the thioamide, and carbamate analogues of both α-GalCer and ThrCer by oxidative refolding chromatography, and then biotinylated. The urea analogues of α-GalCer and ThrCer could not be refolded, and therefore, no surface plasmon resonance (SPR) data are available for these molecules. Soluble human iNKT TCR was prepared. SPR experiments were used to measure the affinity and kinetics of human iNKT cell TCRs for hCD1d loaded with α-GalCer, ThrCer, and their thioamide and carbamate analogues (FIGS. 5A-5B). To this end, increasing concentrations of TCR were injected for 5 seconds over the indicated complex immobilized on the BIAcore chip until the specific binding reached its plateau. Kd and Bmax were calculated by fitting the data using non-linear regression binding kinetics model (FIGS. 5A-5B). Kinetic measurements for the koff were calculated using BIAevaluation software kit; kon values were calculated from the experimental koff and Kd.
Protein expression and purification: hCD1d and β2m were refolded with α-GalCer, IMM47, IMM60, IMM70 or IMM80 by oxidative chromatography. In summary, CD1d and β2m were overexpressed in E. coli BL21 using a prokaryotic expression system (Novagen, UK). […]

Question: Which results are given for CCCCCCCCCCCCCCCCCCCCCCCCCC(=O)N[C@H](CO[C@H]1CC[C@H](O)[C@H](O)[C@H]1O)[C@@H](O)[C@@H](O)CCCCCCCCCCCCCC [IMM60, N-((2R,3R,4S)-3,4-dihydroxy-1-(((1S,2R,3S,4S)-2,3,4-trihydroxycyclohexyl)oxy)octadecan-2-yl)hexacosanamide]?
Answer: regression of established tumour [1]: induced regression of the established tumour; dendritic cell killing [2]: highest dendritic cell killing; iNKT cell activation (IFN-gamma at 18 h, PD1 at 28 days) ([3]; 100 ng i.v. preconditioning at day −28): stronger iNKT cell activation than IMM47, IMM70, or even alphaGalCer; iNKT cell anergy (IFNγ 18 h after OVA and alphaGalCer at day zero) [3]: highest iNKT cell anergy

Question: Which “percentage of DC lysis” value ([2]; concentrations lower than 5 ng/ml) does the source give for CCCCCCCCCCCCCCCCCCCCCCCCCC(=O)N[C@H](CO[C@H]1CCC[C@H](O)[C@H](O)[C@H]1O)[C@@H](O)[C@@H](O)CCCCCCCCCCCCCC [IMM70, N-((2R,3R,4S)-3,4-dihydroxy-1-(((1S,2R,3S,4S)-2,3,4-trihydroxycycloheptyl)oxy)octadecan-2-yl)hexacosanamide] here?
Answer: very similar to the results obtained with IMM47

Question: What about the T-cell response ([3]; day 7 after immunization of preconditioned mice) of the same molecule?
Answer: highest T-cell response

Question: What about the “iNKT cell anergy (IFNγ 18 h after OVA and alphaGalCer at day zero)” value [3] of the same molecule?
Answer: functional iNKT cells

Question: With CCCCCCCCCCCCCCCCCCCCCCCC(=O)NC(COC1OC(CO)C(O)C(O)C1O)C(O)C(O)CCCCC (stereo not shown) [OCH9 12] as the molecule, how does the Kd ([4]; OCH9 on CD1d) read?
Answer: 123 ± 9.08 µM

Question: What about the “k0 (on rate)” value ([4]; OCH9 on CD1d) of the same molecule?
Answer: 23000 ± 1000 M⁻¹ s⁻¹

Question: And the koff ([4]; OCH9 on CD1d)?
Answer: 2.67 ± 0.12 s⁻¹

Question: What about the “interaction with iNKT cell TCRs” value ([4]; recent study, versus α-GalCer) of the same molecule?
Answer: weaker interactions than α-GalCer

Question: Which dendritic cell killing [2] does the source give for CCCCCCCCCCCCCCCCCCCCCCCCCC(=O)N[C@@H](COC[C@H](O)[C@@H](O)CO)[C@H](O)[C@H](O)CCCCCCCCCCCCCC [ThrCer 2, threitolceramide] here?
Answer: lowest dendritic cell killing

Question: What about the “iNKT cell anergy (IFNγ 18 h after OVA and alphaGalCer at day zero)” value [3] of the same molecule?
Answer: weakest iNKT cell anergy

Question: What does the source list for CCCCCCCCCCCCCCCCCCCCCCCCCC(=O)N[C@@H](CO[C@H]1O[C@H](CO)[C@H](O)[C@H](O)[C@H]1O)[C@H](O)[C@H](O)CCCCCCCCCCCCCC [α-GalCer 1, α-galactosylceramide]?
Answer: kon ([5]; calculated from experimental koff and Kd): 2580 ± 90 M⁻¹ s⁻¹; koff ([5]; lipid on CD1d, read-out: experimental koff): 0.565 ± 0.008 s⁻¹; iNKT cell anergy (IFNγ 18 h after OVA and alphaGalCer at day zero) [3]: highest iNKT cell anergy
